{"source": "patent US20240041830A1", "about": "“CIRCULATING BIOMARKERS OF RESPONSE TO PD-1/PD-L1 BLOCKADE AND GSK-3 INHIBITION” (Brown University, priority 2022, published 2024)", "key": {"[1]": {"test": "Luminex 200 analysis of patient plasma (NCT03678883)", "type": "in vivo, human", "details": "eight hours and twenty-four hours after treatment"}, "[2]": {"test": "toxicity monitoring in CT-26 BALB/c mice: body weight, serum chemistry, complete blood count", "type": "in vivo, mouse", "experimental": "In vivo studies. The experimental in vivo protocol (Protocol #19-01-003) was approved by the Institutional Animal Care and Use Committee of Brown University (Providence, RI, USA). Six-week to seven-week-old female BALB/c mice (RRID: IMSR_JAX:000651) were purchased from Taconic. A total of 50,000 cells were suspended in 50 μL ice-cold PBS and 50 μL Matrigel (Catalog #354234, Corning, New York, NY, USA), and 100 μL was injected subcutaneously into the rear flanks. Once tumor volume reached at least 100 mm^3, mice were randomly assigned to one of seven groups (12 mice/group): Control (isotype), elraglusib, elraglusib+Isotype, anti-PD-1, anti-PD-L1, elraglusib+anti-PD-1, and elraglusib+anti-PD-L1. All treatments were delivered by IP injection using the following dosing schedule: Isotype (70 mg/kg, twice a week), elraglusib (70 mg/kg, twice a week), anti-PD-1 (10 mg/kg, twice a week), anti-PD-L1 (10 mg/kg, twice a week). Treatment dosing was determined based on previous studies of elraglusib and anti-PD-1/anti-PD-L1. Ugolkov et al., Anticancer Drugs, 29, 717-724 (2018); McClanahan et al., Blood, 126, 203-211 (2015); Bernardo et al., Oncoimmunology, 10, 1881268 (2021). The solvent for elraglusib was DMSO and the formulation buffer for elraglusib was made using 75% PEG400, 7% Tween 80, and 18% Ethanol. The treatment continued until mice developed signs of discomfort from excessive tumor growth. Mice were weighed once a week to monitor signs of drug toxicity. The length (L) and width (W) of the masses were measured three times per week with a digital caliper, and the tumor volume was calculated by applying the formula: 0.5LW2 Collection of whole blood and serum was performed by cardiac puncture and sent to Antech Diagnostics GLP (Morrisville, NC, USA) for blood cell count and chemistry tests, or in-house cytokine profiling. Tumors and organs were dissected and harvested for analysis by immunohistochemistry and flow cytometry.\nThe inventors evaluated the potential for elraglusib to increase the efficacy of immune checkpoint blockade and utilized a syngeneic murine colon carcinoma BALB/c murine model using a MSS cell line CT-26 (FIG. 4A). Mice were randomly assigned to one of seven groups: isotype (N=12), elraglusib (N=12), elraglusib+isotype (N=12), anti-PD-1 (N=12), anti-PD-L1 (N=12), elraglusib+anti-PD-1 (N=12), and elraglusib+ anti-PD-L1 (N=12). […] The inventors saw the most sustained response in the elraglusib and anti-PD-L1 combination therapy group.\nTABLE 13 description. […] Whole blood from long-term mice sacrificed was submitted for serum chemistry analysis. Results are shown from the complete metabolic panel and complete blood count with differential. ALB: Albumin, ALP: Alkaline Phosphatase, ALT: Alanine aminotransferase, AMY: Amylase, ANIS: Anisocytosis, AST: Aspartate aminotransferase, ATYP: Atypical Lymphs, BAS: Absolute Basophils, BAS%: % Basophils, BUN: Urea Nitrogen, CA: Calcium, CHOL: Cholesterol, CL: Chloride, CPK: Creatine kinase, CPLT: Clumped Platelets, CREA: Creatinine, DBIL: Direct Bilirubin, EOS: Absolute Eosinophils, EOS% : % Eosinophils, GGT: Gamma-glutamyl Transferase, GLU: Glucose, HB: Hemoglobin, HCT: Hematocrit, HJB: Howell-Jolly Bodies, HYPO: Hypochromasia, HYPR: Hyperchromasia, K: Potassium, LDH: Lactate Dehydrogenase, LIP: Lipase, LPLT: Large Platelets, LUC: Absolute Large Unstained Cells, LUC%: % Large Unstained Cells, LYM: Absolute Lymphocytes, LYM%: % Lymphocytes, MAC: Macrocytosis, MCH: Mean Corpuscular Hemoglobin, MCHC: Mean Corpuscular Hemoglobin […], MCV: Mean Corpuscular Volume, MG: Magnesium, MIC: Microcytosis, MON: Absolute Monocytes, MON%: % Monocytes, NA: Sodium, NEU: Absolute Neutrophils, NEU%: % Neutrophils, PHOS: Inorganic Phosphorus, PLT: Platelet Count, POLK: Poikilocytosis, RBC: Red Blood Cell Count, TBIL: Total Bilirubin, TPRO: Total Protein, TRIG: Triglyceride, WBC: White Blood Cell Count."}}, "data": [{"compound": "Cn1cc(C2=C(c3coc4ccc(F)cc34)C(=O)NC2=O)c2cc3c(cc21)OCO3", "note": "[elraglusib]", "values": [{"measurement": "plasma cytokines, chemokines, growth factors vs baseline", "setting": "[1]", "value": "upregulated"}, {"measurement": "ALB (Albumin)", "setting": "[2]; long-term mice sacrificed", "value": 2.7, "unit": "g/dL"}, {"measurement": "ALP (Alkaline Phosphatase)", "setting": "[2]; long-term mice sacrificed", "value": 4, "unit": "U/L"}, {"measurement": "ALT (Alanine aminotransferase)", "setting": "[2]; long-term mice sacrificed", "value": 26, "unit": "U/L"}, {"measurement": "AMY (Amylase)", "setting": "[2]; long-term mice sacrificed", "value": 275, "unit": "U/L"}, {"measurement": "AST (Aspartate aminotransferase)", "setting": "[2]; long-term mice sacrificed", "value": 198, "unit": "U/L"}, {"measurement": "BUN (Urea Nitrogen)", "setting": "[2]; long-term mice sacrificed", "value": 27, "unit": "mg/dL"}, {"measurement": "CHOL (Cholesterol)", "setting": "[2]; long-term mice sacrificed", "value": 101, "unit": "mg/dL"}, {"measurement": "CL (Chloride)", "setting": "[2]; long-term mice sacrificed", "value": 111, "unit": "mmol/L"}, {"measurement": "CPK (Creatine kinase)", "setting": "[2]; long-term mice sacrificed", "value": 1968, "unit": "U/L"}, {"measurement": "CREA (Creatinine)", "setting": "[2]; long-term mice sacrificed", "value": 0.2, "unit": "mg/dL"}, {"measurement": "DBIL (Direct Bilirubin)", "setting": "[2]; long-term mice sacrificed", "value": 0, "unit": "mg/dL"}, {"measurement": "GGT (Gamma-glutamyl Transferase)", "setting": "[2]; long-term mice sacrificed", "value": 0, "unit": "U/L"}, {"measurement": "GLU (Glucose)", "setting": "[2]; long-term mice sacrificed", "value": 230, "unit": "mg/dL"}, {"measurement": "K (Potassium)", "setting": "[2]; long-term mice sacrificed", "value": ">10.0", "unit": "mmol/L"}, {"measurement": "LDH (Lactate Dehydrogenase)", "setting": "[2]; long-term mice sacrificed", "value": 2230, "unit": "U/L"}, {"measurement": "LIP (Lipase)", "setting": "[2]; long-term mice sacrificed", "value": 59, "unit": "U/L"}, {"measurement": "MG (Magnesium)", "setting": "[2]; long-term mice sacrificed", "value": 1.2, "unit": "mg/dL"}, {"measurement": "NA (Sodium)", "setting": "[2]; long-term mice sacrificed", "value": 146, "unit": "mmol/L"}, {"measurement": "PHOS (Inorganic Phosphorus)", "setting": "[2]; long-term mice sacrificed", "value": 8.2, "unit": "mg/dL"}, {"measurement": "TBIL (Total Bilirubin)", "setting": "[2]; long-term mice sacrificed", "value": 0.5, "unit": "mg/dL"}, {"measurement": "TPRO (Total Protein)", "setting": "[2]; long-term mice sacrificed", "value": 4.5, "unit": "g/dL"}, {"measurement": "TRIG (Triglyceride)", "setting": "[2]; long-term mice sacrificed", "value": 136, "unit": "mg/dL"}, {"measurement": "renal function (BUN and creatinine)", "setting": "[2]; mouse, in vivo", "value": "maintained normal renal function"}]}]}
